Assay results: ChEMBL document CHEMBL1139723, “Novel imidazole-based combretastatin A-4 analogues: evaluation of their in vitro antitumor activity and molecular modeling study of their binding to the colchicine site of tubulin” (Bioorg Med Chem Lett, 2006)

Tests used:
[1] = Cytotoxicity against NCI60 cell line; type: cell-based; conditions: human
[2] = Cytotoxicity against NCI-H460 cells; type: cell-based; conditions: human
[3] = Cytotoxicity against MDR HCT15 cells; type: cell-based; conditions: human, MDR HCT-15 cells
HCC 2998 = assay: Tumor growth inhibition against HCC2998 cells; type: functional; conditions: Homo sapiens, read-out: Log TGI (converted)
HL-60 = assay: Tumor growth inhibition against HL60 cells; type: functional; conditions: Homo sapiens, read-out: Log TGI (converted)
[4] = Tumor growth inhibition of […] cells xenografted in immunodeficient mouse at 150 mg/kg/day after 25 days; type: functional; conditions: Homo sapiens, 600 h

SMILES | Log TGI [1] | pGI50 [1] | GI50 [2] | GI50 [3] | TGI (HCC 2998) | TGI (HL-60) | inhibition in vivo at 150 mg/kg/day [4]
COc1ccc(/C=C\c2cc(OC)c(OC)c(OC)c2)cc1O [COMBRETASTATIN A4] | -5.03 | 7 | < 10 nM | < 10 nM | – | – | –
COc1ccc(-c2nccn2-c2ccc(OC)cc2)cc1 | -4.19 | 4.76 | 17800 nM | 22900 nM | – | – | –
COc1ccc(-c2cncn2-c2ccc(OC)cc2)cc1 | -4.32 | 4.8 | 15500 nM | 19500 nM | – | – | –
COc1cc(-n2cncc2-c2ccc3ccccc3c2)cc(OC)c1OC | -4.4 | 7.14 | 18 nM | 17 nM | 29.5 nM | – | –
COc1ccc(-c2cncn2-c2cc(OC)c(OC)c(OC)c2)cc1F | -4.51 | 7.4 | < 10 nM | < 10 nM | – | < 28.8 nM | –
COc1ccc(-n2ccnc2-c2cc(OC)c(OC)c(OC)c2)cc1 | -4.32 | 5.45 | 2340 nM | 1150 nM | – | – | –
COc1cc(-c2nccn2-c2ccc3ccccc3c2)cc(OC)c1OC | -4.8 | 6.86 | 21 nM | 22 nM | – | – | –
COc1ccc(-c2nccn2-c2cc(OC)c(OC)c(OC)c2)cc1 | -4.16 | 5.34 | 1580 nM | 1150 nM | – | – | –
COc1cc(-n2ccnc2-c2ccc3ccccc3c2)cc(OC)c1OC | -4.68 | 6.82 | 37 nM | 51 nM | – | – | –
COc1ccc(-c2cncn2-c2cc(OC)c(OC)c(OC)c2)cc1 | -4.71 | 6.59 | 363 nM | 170 nM | – | – | 52%
